Key:
Type in all cases: in vivo, mouse
Tg-APP/PS1 mice [1] = test: Novel object recognition test; details: Example 1, 1.2 mg/kg intraperitoneal, 4 times for 2 weeks from 6.5 months of age
Experimental: The test substance was prepared by diluting GI210B1 obtained in Preparation Example 1 in saline, and it was intraperitoneally administered to 6.5-month-old Tg-APP/PS1 mice at a concentration of 1.2 mg/kg a total of 4 times for 2 weeks (FIG. 10).
In the Tg-APP/PS1 mice intraperitoneally administered with GI210B1 at 6.5 months of age in Example 1.1 above, behavioral characteristics of cognitive function were evaluated at 7.5 to 8.0 months of age. In order to evaluate the behavioral characteristics of cognitive function, a novel object recognition test (NOR test), a passive avoidance test, and a water maze test were performed. At that time, the three experiments for behavioral evaluation were performed according to a method known in the art.
All behavior evaluations were recorded with a computerized video-tracking system (SMART; Panlab S. I., Barcelona, Spain) and a webcam recording system (HD Webcam C210, Logitech, Newark, CA, USA). At that time, the background sound in the test room was set to 65 dB of white noise, and all behavioral tests were performed during the photoperiod (9 a.m. to 3 p.m.).
Specifically, the mice prepared in Example 1.1 above were repeatedly exposed to two objects of the same shape twice at intervals of 10 minutes in an open field (familiarization). […] In addition, two hours after the habituation of the mice was completed, the mice were exposed to a novel object and an old object, and then the time taken for the mouse to recognize each object was measured [2-hour-NOR (novel object recognition) experiment]. Thereafter, the mice returned to their home cage, and then the location of one of the just-exposed objects was moved, and then object distinguishment and recognition time were measured [2-hour-NLR (novel position recognition) experiment]. Thereafter, 24 hours after the habituation of the mice was completed, the mice were exposed to another object and an old object, and then the time taken for the mouse to approach each object was measured (24-hour-NOR experiment). […]

Tg-APP/PS1 mice [2] = test: Aβ plaque deposition in brain tissue, thioflavin S staining; details: 4 times for 2 weeks
Experimental: Accordingly, in order to confirm the effect of treating Alzheimer's disease by intraperitoneal administration of GI210B1, the Tg-APP/PS1 mice administered with GI210B1 (Tg+GI210B1) and the Tg-APP/PS1 mice (Tg+Veh), a control group, were sacrificed, and then the brain tissue was extracted, and Aβ plaques were stained using thioflavin S, and then the degree of Aβ plaque deposition in the parietal cortex, hippocampus, and piriform cortex regions was analyzed.
Specifically, for immunohistochemical analysis using thioflavin S staining, the brain was collected after perfusion for the mouse with 4% paraformaldehyde, and then the brain was further fixed with 4% paraformaldehyde overnight at 4° C. The brain tissue sections were prepared by cutting the fixed brain tissue to a thickness of […] using a vibratome. The prepared brain tissue sections were stained using thioflavin S by a known method. At that time, the stained image was analyzed using MetaMorph Microscopy Automation & Image Analysis software (Molecular device). The amount of plaque was quantified and expressed as the number of plaques per unit area and the sum of the plaque areas.
The Tg-APP/PS1 mice were prepared in the same manner as in Example 1.1 above. The test substance was prepared by diluting GI210B1, GI210B1C1, or GI210B1CN obtained in Preparation Example 1 to 3 in saline. Thereafter, the prepared test substances were each intraperitoneally administered to the 6.5-month-old Tg-APP/PS1 mice at a concentration of 1.2 mg/kg, 0.7778 mg/kg, and 1.1745 mg/kg a total of 4 times for 2 weeks (FIG. 23).
In the same manner as in Example 1.3 above, the mice were sacrificed, and then the brain tissue was extracted, and the degree of Aβ plaque deposition in the parietal cortex, hippocampus, and piriform cortex regions was analyzed using thioflavin S, which stains Aβ plaques.
The Tg-APP/PS1 mice were prepared in the same manner as in Example 1.1 above. The test substance was prepared by diluting GLP-1 (Peptron), GI210B1C1 obtained in Preparation Example 2 and GI212B2 obtained in Preparation Example 4, anakinra (Amgen, Kineret-inj), and the anti-IL-1 antibody (BioXcell, BE0246) in saline to concentrations of 0.0371 mg/kg, 1.1745 mg/kg, 1.8722 mg/kg, 0.2041 mg/kg, and 1.77 mg/kg, respectively. Thereafter, the prepared test substances were intraperitoneally administered to the 6.5-month-old Tg-APP/PS1 mice a total of 4 times for 2 weeks, as shown in Table 6 below (FIG. 30). […]
In the same manner as in Example 1.3 above, the mice from each group were sacrificed, and then the brain tissue was extracted, and the degree of Aβ plaque deposition in the parietal cortex, hippocampus, and piriform cortex regions was analyzed using thioflavin S, which stains Aβ plaques.

Tg-APP/PS1 mice [3] = test: Ki-67 staining of hippocampal DG region; details: Example 1; GI210B1 1.2 mg/kg intraperitoneal, 4 times for 2 weeks
Description: Ki-67 is a protein expressed in the nucleus during cell division.
In order to confirm the effect of GI210B1 on the decreased neurogenesis in the DG region of the hippocampus of Tg mice, the Tg-APP/PS1 mice administered with GI210B1 (Tg+GI210B1), the wild type mice (WT) as a normal group, and the Tg-APP/PS1 mice (Tg) as a control group were sacrificed, and then the brain was extracted, and the DG region of the hippocampus was fluorescently stained with Ki-67.

Tg-APP/PS1 mice [4] = test: MAP-2 immunofluorescence staining of hippocampal CA1 region; details: 4 times for 2 weeks
Description: Long-term memory is regulated at synapses between axons of neurons and dendrites of target neurons, and the microstructure of neurons is greatly influenced by the state of neuron health. Changes in the microstructure of dendrites of neurons are important for maintaining memory. The microstructure of the dendrites of such neurons can be observed as an image by staining with an anti-MAP-2 antibody (GeneTex, CatNo. GTX133109) located in the dendrites.
Therefore, in order to determine the mechanism of action of cognitive function improvement and memory recovery effects of GI210B1, the Tg-APP/PS1 mice administered with GI210B1 (Tg+GI210B1), the wild type mice (WT) as a normal group, and the Tg-APP/PS1 mice (Tg or Tg+Veh) as a control group were sacrificed, and then the brain tissue was extracted, and the microstructural status of the dendrites (dendritic process) of the hippocampus was analyzed.
In the same manner as in Example 1.4.1 above, the mice from each group were sacrificed, and then the brain tissue was extracted, and the microstructural status of the dendrites of the hippocampus was analyzed.

[5] = Example 2, GI210B1, GI210B1C1, GI210B1CN at 1.2, 0.7778, 1.1745 mg/kg intraperitoneal

GI210B1: fusion protein dimer comprising GLP-1 (SEQ ID NO: 2), IgG4 Fc domain and IL-1Ra; SEQ ID NO: 10
recognition of a novel object, 24-hour-NOR experiment (Tg-APP/PS1 mice [1]): recognized a novel object for a longer time at a similar level to the normal group (WT)
time taken for the mouse to recognize an object whose location was changed, 2-hour-NLR experiment (Tg-APP/PS1 mice [1]): increased similar to the normal group
time taken for the mouse to recognize a novel object, 2-hour-NOR experiment (Tg-APP/PS1 mice [1]; tested at 7.5 to 8.0 months): increased similar to the normal group (WT)
amount of plaque deposited in the brain (number of plaques per unit area and sum of plaque areas) (Tg-APP/PS1 mice [2]; Example 1, parietal cortex, hippocampus, piriform cortex, GI210B1 1.2 mg/kg intraperitoneal): tended to be reduced compared to the control group
amount of plaque deposited in the brain (number of plaques per unit area and sum of plaque areas) (Tg-APP/PS1 mice [2]; [5]): statistically significantly reduced compared to the control group (Tg+Veh)
amount of plaque deposited in the brain (number of plaques per unit area and sum of plaque areas) (Tg-APP/PS1 mice [2]; Example 2, GI210B1, GI210B1C1, GI210B1CN at 1.2, 0.7778, 1.1745 mg/kg intraperitoneal, listed as G2101B1): tended to be reduced
number of Ki-67 positive cells in the DG region of the hippocampus (Tg-APP/PS1 mice [3]): increased compared to the Tg-APP/PS1 mice (Tg), which was a level similar to that of the normal group (WT)
expression level of MAP-2 in the CA1 region of the hippocampus (Tg-APP/PS1 mice [4]; Example 1, GI210B1 1.2 mg/kg intraperitoneal): recovered to the level of the normal group (WT)
expression level of MAP-2 in the CA1 region of the hippocampus (Tg-APP/PS1 mice [4]; [5]): higher than that of the control group (Tg+Veh)

Reference: patent US20250099548A1, “PHARMACEUTICAL COMPOSITION FOR PREVENTING OR TREATING DEGENERATIVE BRAIN DISEASES, CONTAINING GLUCAGON-LIKE PEPTIDE-1 AND INTERLEUKIN-1 RECEPTOR ANTAGONIST” (GI INNOVATION, INC., priority 2022, published 2025)
